Measurements: patent publication US8188059B2, “Compounds and methods for modulating expression of GCGR” (Isis Pharmaceuticals, Inc., priority 2006, dated 2012)
e = 2'-O-(2-methoxyethyl) (MOE); d = 2'-deoxy (DNA)

How the values were obtained:
human SGLT2 = target: T1, human SGLT2 (Homo sapiens, UniProt P31639); details: cited from earlier work
T1 construct: host or cells: Xenopus oocytes (heterologous expression after injection)
T1 sequence (P31639 1-672): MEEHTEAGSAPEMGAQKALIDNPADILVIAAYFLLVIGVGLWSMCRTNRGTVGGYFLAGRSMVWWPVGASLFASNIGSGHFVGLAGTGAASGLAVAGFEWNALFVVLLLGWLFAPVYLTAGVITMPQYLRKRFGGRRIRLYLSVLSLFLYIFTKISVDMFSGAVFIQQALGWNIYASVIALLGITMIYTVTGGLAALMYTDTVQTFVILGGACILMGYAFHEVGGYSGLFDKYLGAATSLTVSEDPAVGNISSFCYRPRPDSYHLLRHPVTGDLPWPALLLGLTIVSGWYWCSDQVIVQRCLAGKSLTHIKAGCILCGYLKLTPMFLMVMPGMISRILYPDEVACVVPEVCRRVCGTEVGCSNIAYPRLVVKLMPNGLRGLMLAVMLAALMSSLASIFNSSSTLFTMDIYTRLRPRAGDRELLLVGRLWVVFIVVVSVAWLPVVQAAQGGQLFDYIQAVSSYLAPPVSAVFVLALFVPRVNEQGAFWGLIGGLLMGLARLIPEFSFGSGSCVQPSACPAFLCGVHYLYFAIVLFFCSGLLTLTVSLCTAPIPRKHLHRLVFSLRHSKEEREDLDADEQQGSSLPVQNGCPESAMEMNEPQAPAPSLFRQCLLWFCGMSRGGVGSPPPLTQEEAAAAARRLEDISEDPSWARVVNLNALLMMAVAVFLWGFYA

rat SGLT2 mRNA [1] = assay: Rat SGLT2 mRNA levels in kidney, 1-10-1 gapmers at 250 nmol/kg, Sprague-Dawley rats (Example 14, Table 66); type: in vivo; details: 250 nmol/kg i.p. twice per week for three weeks; Sprague-Dawley rats; kidney
Description: The effect of the above 1-10-1gapmers (see Table 64 above) on rat SGLT2 mRNA levels. Data are taken from four experiments in which male Sprague-Dawley rats (170-200 g) were dosed twice per week for three weeks with 250 nmol/kg given by intraperitoneal injection. Rats were sacrificed 48 hours following last administration and evaluated for SGLT2 mRNA levels in kidney. Target levels were determined by RT, real-time PCR as described by other examples herein. PCR results were normalized to an internal ISIS control.

SGLT-2 mRNA [2] = assay: SGLT-2 mRNA levels in kidney of normal rats after intrajejunal administration (Example 11); type: in vivo, rat; details: 100 mg/kg twice per week intrajejunal
mouse SGLT2 mRNA [3] = assay: Mouse SGLT2 mRNA levels in kidney, 1-10-1 MOE gapmers, Balb/c mice (Example 14, Table 65); type: in vivo
Description: The short antisense compounds were analyzed for their effect on mouse SGLT2 mRNA levels. Data was taken from three experiments in which Male 6-week old Balb/c mice were dosed twice per week for two weeks with 450, 150, or 50 nmol/kg of one of the above 1-10-1 MOE gapmers given by intraperitoneal injection. Mice were sacrificed 48 hours following last administration and evaluated for SGLT2 mRNA levels in kidney. Target levels were determined by RT, real-time PCR as described by other examples herein. PCR results were normalized to an internal ISIS control.

rat SGLT2 mRNA [4] = assay: Rat SGLT2 mRNA levels in kidney, 1-10-1 and 1-10-2 MOE gapmers, Sprague-Dawley rats (Example 13, Table 63); type: in vivo
From the text: 1-10-1 and 1-10-2 MOE gapmer antisense compounds, provided in Table 62, were designed to target different regions of the mouse or rat SGLT2 RNA. All short antisense compounds in Table 62 are chimeric oligonucleotides (“gapmers”) either 12 or 13 nucleotides in length, composed of a central “gap” segment consisting of ten 2′-deoxynucleotides, which are flanked on the 5′ side by a one-nucleoside “wing” and on the 3′ side by a two or one-nucleotide “wing”. […] All cytidine residues are 5-methylcytidines.
The short antisense compounds were analyzed for their effect on rat SGLT2 mRNA levels. Data are ranges taken from three experiments in which Male Sprague-Dawley rats (170-200 g) were dosed twice per week for three weeks with 450, 150 or 50 nmol/kg of either a 1-10-1 or 1-10-2 MOE gapmer given by intraperitoneal injection. Rats were sacrificed 48 hours following last administration and evaluated for SGLT2 mRNA levels in kidney. Target levels were determined by RT, real-time PCR as described by other examples herein. PCR results were normalized to an internal ISIS control.

SGLT-2 mRNA [5] = assay: SGLT-2 mRNA levels in kidney of ZDF rats, parent versus 12 nucleobase compound (Example 10); type: in vivo, rat
Description: In a next study, ZDF rats were dosed intraperitoneally twice per week with 1.5 mg/kg of either ISIS 257016 or ISIS 370717, or with saline at a similar dosing schedule. ISIS 370717 is a 12 nucleobase antisense compound targeted to SGLT-2 nucleic acid comprising the sequence […] […] All cytidine residues are 5-methylcytidines.
The date support that ISIS 257016 is a prodrug having a 12 nucleotide pharmacophore.

mouse SGLT2 mRNA [6] = assay: Mouse SGLT2 mRNA levels in kidney, wing, gap and length variations (Example 12, Table 61); type: in vivo; details: mice
Description: ISIS 370717 1-10-1 MOE gapmer was used as a template to make sequence related oligos with varying motifs. The antisense compounds were designed to target different regions of the mouse or rat SGLT2 nucleic acid, using published sequences (GenBank accession number U29881.1, incorporated herein as SEQ ID NO: 1575, and GenBank accession number AJ292928.1, incorporated herein as SEQ ID NO: 1576, respectively).
The antisense compounds were analyzed for their effect on mouse SGLT2 mRNA levels. Data are ranges taken from three experiments in which mice were dosed twice per week for three weeks with 2.5, 0.5 or 0.1 umol/kg of the above MOE gapmers given by intraperitoneal injection. Mice were sacrificed 48 hours following last administration and evaluated for SGLT2 levels in kidney. SGLT2 mRNA levels were determined by RT, real-time PCR as described by other examples herein. PCR results were normalized to an internal ISIS control.

Compound: O=C(CCc1ccc(O)cc1)c1c(O)cc(O)cc1O[C@@H]1O[C@H](CO)[C@@H](O)[C@H](O)[C@H]1O [phlorizin]
- transport activity (human SGLT2; You et al., 1995): suppressed

Compound: CO[C@H]1O[C@H](CO)[C@@H](O)[C@H](O)[C@H]1O [α-MeG1c, α-methyl-D-glucopyranoside]
- Km (human SGLT2; sodium-dependent transport (Kanai et al., 1994; You et al., 1995)): 1600 µM

Compound: ISIS 370717: SGLT2; TAGCCACCAACT 1-10-1 MOE gapmer, phosphorothioate (sugars from the 5' end e1 d10 e1, all phosphorothioate, methylation of C not given here)
- % change in SGLT2 expression relative to saline (rat SGLT2 mRNA [1]): −70%
- SGLT-2 mRNA reduced over the controls (SGLT-2 mRNA [2]): more than 80%
- % change in SGLT2 expression relative to saline (mouse SGLT2 mRNA [3]; 50 nmol/kg i.p. twice per week for two weeks): −47.5%
- % change in SGLT2 expression relative to saline (mouse SGLT2 mRNA [3]; 150 nmol/kg i.p. twice per week for two weeks): −55%
- % change in SGLT2 expression relative to saline (mouse SGLT2 mRNA [3]; 450 nmol/kg i.p. twice per week for two weeks): −65%
- % change in SGLT2 expression relative to saline (rat SGLT2 mRNA [4]; 50 nmol/kg i.p. twice per week for three weeks): −55%
- % change in SGLT2 expression relative to saline (rat SGLT2 mRNA [4]; 150 nmol/kg i.p. twice per week for three weeks): −70%
- % change in SGLT2 expression relative to saline (rat SGLT2 mRNA [4]; 450 nmol/kg i.p. twice per week for three weeks): −70%
- pharmacological activity (SGLT-2 mRNA [5]; ZDF rats, 1.5 mg/kg i.p. twice per week, five weeks): similar
- onset of action (SGLT-2 mRNA [5]; compared with ISIS 257016): faster onset of action
- inhibition of SGLT2 expression in kidney (SGLT-2 mRNA [5]; day two after a single dose of 2.8 umoles/kg): ~80%
- % change in SGLT2 expression relative to saline (mouse SGLT2 mRNA [6]; 0.1 umol/kg i.p. twice per week for three weeks): −55%
- % change in SGLT2 expression relative to saline (mouse SGLT2 mRNA [6]; 0.5 umol/kg i.p. twice per week for three weeks): −70%
